pKd: −log10 of the molar value.
Experiments:
[1] = molecular target: human MLKL (full length) (Homo sapiens (Human), UniProt Q8NB16); assay: KINOMEscan binding assay, human MLKL (full length); conditions: KINOMEscan, Table 21; read-out: Human MLKL (full-length) (KD)
Summary of the method: (§1)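 In this assay, compounds displace DNA- or phage-tagged kinase from an immobilized ligand, and eluted kinase is quantified by qPCR.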

[2] = molecular target: human RIPK1 (Homo sapiens (Human), UniProt Q13546); assay: KINOMEscan binding assay, human RIPK1; conditions: Table 21
Sequence of human RIPK1 (Q13546 whole entry): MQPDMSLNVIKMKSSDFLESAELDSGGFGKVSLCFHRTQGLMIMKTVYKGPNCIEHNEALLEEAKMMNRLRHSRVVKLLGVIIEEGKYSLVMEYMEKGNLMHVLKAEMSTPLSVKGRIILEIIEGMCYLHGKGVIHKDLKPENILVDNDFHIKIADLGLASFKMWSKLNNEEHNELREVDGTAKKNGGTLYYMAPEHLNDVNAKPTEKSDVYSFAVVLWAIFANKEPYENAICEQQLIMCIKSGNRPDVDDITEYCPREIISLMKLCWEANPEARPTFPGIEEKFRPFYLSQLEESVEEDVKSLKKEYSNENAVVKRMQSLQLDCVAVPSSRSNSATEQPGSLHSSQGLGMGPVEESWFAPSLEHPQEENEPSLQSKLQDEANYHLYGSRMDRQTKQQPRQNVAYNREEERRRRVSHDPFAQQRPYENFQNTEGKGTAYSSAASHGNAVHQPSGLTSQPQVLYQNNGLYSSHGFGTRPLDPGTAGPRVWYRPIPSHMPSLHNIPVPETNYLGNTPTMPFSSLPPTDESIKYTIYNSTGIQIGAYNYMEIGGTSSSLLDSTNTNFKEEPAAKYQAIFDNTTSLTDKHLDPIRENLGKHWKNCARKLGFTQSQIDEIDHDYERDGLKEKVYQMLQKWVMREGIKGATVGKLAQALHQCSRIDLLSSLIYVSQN
Summary of the method: as §1

[3] = molecular target: human RIPK3 (Homo sapiens (Human), UniProt Q9Y572); assay: KINOMEscan binding assay, human RIPK3; conditions: Table 21
Sequence of human RIPK3 (Q9Y572 whole entry): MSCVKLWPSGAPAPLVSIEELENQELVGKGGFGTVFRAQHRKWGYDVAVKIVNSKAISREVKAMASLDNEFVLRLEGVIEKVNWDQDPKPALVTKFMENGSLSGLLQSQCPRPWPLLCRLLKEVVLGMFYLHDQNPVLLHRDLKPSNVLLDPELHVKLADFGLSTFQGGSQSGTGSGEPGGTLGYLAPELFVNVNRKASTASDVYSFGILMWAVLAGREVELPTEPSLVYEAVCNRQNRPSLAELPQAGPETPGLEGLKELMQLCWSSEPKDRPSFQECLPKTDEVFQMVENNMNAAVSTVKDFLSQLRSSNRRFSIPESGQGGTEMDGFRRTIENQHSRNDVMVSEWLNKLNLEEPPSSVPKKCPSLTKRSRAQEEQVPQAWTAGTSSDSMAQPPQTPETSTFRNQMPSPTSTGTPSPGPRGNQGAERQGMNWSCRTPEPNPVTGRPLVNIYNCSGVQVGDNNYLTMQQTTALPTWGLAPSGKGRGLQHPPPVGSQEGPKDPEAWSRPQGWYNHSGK
Summary of the method: as §1

Sequence of human MLKL (full length) (Q8NB16 whole entry): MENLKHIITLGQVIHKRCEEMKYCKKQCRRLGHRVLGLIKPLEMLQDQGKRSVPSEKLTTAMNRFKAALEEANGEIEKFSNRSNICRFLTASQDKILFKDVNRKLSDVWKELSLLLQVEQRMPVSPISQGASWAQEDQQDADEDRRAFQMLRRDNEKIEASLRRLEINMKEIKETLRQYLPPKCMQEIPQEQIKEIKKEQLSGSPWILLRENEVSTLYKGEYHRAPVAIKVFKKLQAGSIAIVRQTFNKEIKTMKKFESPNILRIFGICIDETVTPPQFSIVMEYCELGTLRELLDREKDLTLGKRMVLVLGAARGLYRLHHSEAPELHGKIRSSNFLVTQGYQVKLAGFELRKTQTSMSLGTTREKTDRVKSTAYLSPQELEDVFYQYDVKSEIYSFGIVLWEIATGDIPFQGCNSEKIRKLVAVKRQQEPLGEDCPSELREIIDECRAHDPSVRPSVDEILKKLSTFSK

## C[C@H](Oc1cc(-c2nn(C)c3c(-c4cnn(C5CC6CCC(C5)N6C)c4)cnc(N)c23)ccc1NS(=O)(=O)C(F)F)c1ccc(F)cc1 (stereo partly drawn) [Compound 73, N-(4-(4-amino-1-methyl-7-(1-(8-methyl-8-azabicyclo[3.2.1]octan-3-yl)-1H-pyrazol-4-yl)-1H-pyrazolo[4,3-c]pyridin-3-yl)-2-((S)-1-(4-fluorophenyl)ethoxy)phenyl)-1,1-difluoromethanesulfonamide]
[1]
  pKd: > 9.00
[2]
  pKd: < 5.00
[3]
  pKd: < 5.00

## Nc1n[nH]c2ncnc(-c3ccc(NS(=O)(=O)C(F)F)c(OCc4ccc(F)cc4)c3)c12 [Compound 69, N-(4-(3-Amino-1H-pyrazolo[3,4-d]pyrimidin-4-yl)-2-((4-fluorophenyl)methoxy)phenyl)-1,1-difluoromethanesulfonamide]
[1]
  pKd: > 9.00
[2]
  pKd: < 5.00
[3]
  pKd: < 5.00

## C[C@H](Oc1cc(-c2nn(C)c3c(-c4cnn(C5CCNCC5)c4)cnc(N)c23)ccc1NS(=O)(=O)C(F)F)c1ccc(F)cc1 [Compound 59, N-(4-{4-amino-1-methyl-7-[1-(piperidin-4-yl)-1H-pyrazol-4-yl]-1H-pyrazolo[4,3-c]pyridin-3-yl}-2-[(1 S)-1-(4-fluorophenyl)ethoxy]phenyl)-1,1-difluoromethanesulfonamide]
[1]
  pKd: > 9.00
[2]
  pKd: < 5.00
[3]
  pKd: < 5.00

## C[C@@H](Oc1cc(-c2nn(C)c3c(-c4cnn(C5CCOCC5)c4)cnc(N)c23)ccc1NS(=O)(=O)C(F)F)c1ccc(F)cc1 [Compound 121, (R)-N-(4-(4-amino-1-methyl-7-(1-(tetrahydro-2H-pyran-4-yl)-1H-pyrazol-4-yl)-1H-pyrazolo[4,3-c]pyridin-3-yl)-2-(1-(4-fluorophenyl)ethoxy)phenyl)-1,1-difluoromethane-sulfonamide]
[1]
  pKd: > 9.00
[2]
  pKd: < 5.00
[3]
  pKd: < 5.00

## CCS(=O)(=O)Nc1ccc(-c2coc3c(-c4cnn(C5CCOCC5)c4)cnc(N)c23)cc1OCc1ccc(F)cc1 [Compound 3, N-(4-(4-amino-7-(1-(tetrahydro-2H-pyran-4-yl)-1H-pyrazol-4-yl)furo[3,2-c]pyridin-3-yl)-2-((4-fluorobenzyl)oxy)phenyl)ethanesulfonamide]
[1]
  pKd: > 9.00
[2]
  pKd: < 5.00
[3]
  pKd: < 5.00

## C[C@H](Oc1cc(-c2nn(C)c3c(-c4cnn(C(C)(C)CO)c4)cnc(N)c23)ccc1NS(=O)(=O)C(F)F)c1ccc(F)cc1 [Compound 97, (S)-N-(4-(4-amino-7-(1-(1-hydroxy-2-methylpropan-2-yl)-1H-pyrazol-4-yl)-1-methyl-1H-pyrazolo[4,3-c]pyridin-3-yl)-2-(1-(4-fluorophenyl)ethoxy)phenyl)-1,1-difluoromethanesulfonamide]
[1]
  pKd: > 9.00
[2]
  pKd: < 5.00
[3]
  pKd: < 5.00

## CC(C)N1CC(n2cc(-c3cnc(N)c4c(-c5ccc(NS(=O)(=O)C(F)F)c(O[C@@H](C)c6ccc(F)cc6)c5)nn(C)c34)cn2)C1 [Compound 76, (S)-N-(4-(4-amino-7-(1-(1-isopropylazetidin-3-yl)-1H-pyrazol-4-yl)-1-methyl-1H-pyrazolo[4,3-c]pyridin-3-yl)-2-(1-(4-fluorophenyl)ethoxy)phenyl)-1,1-difluoromethanesulfonamide]
[1]
  pKd: > 9.00
[2]
  pKd: < 5.00
[3]
  pKd: < 5.00

## C[C@H](Oc1cc(-c2nn(C)c3c(-c4cnn(C5(C#N)CC5)c4)cnc(N)c23)ccc1NS(=O)(=O)C(F)F)c1ccc(F)cc1 [Compound 96, N-(4-{4-amino-7-[1-(1-cyanocyclopropyl)-1H-pyrazol-4-yl]-1-methyl-1H-pyrazolo[4,3-c]pyridin-3-yl}-2-[(1S)-1-(4-fluorophenyl)ethoxy]phenyl)-1,1-difluoromethanesulfonamide]
[1]
  pKd: > 9.00
[2]
  pKd: < 5.00
[3]
  pKd: < 5.00

## C[C@H](Oc1cc(-c2nn(C)c3c(-c4cnc(N5CCOCC5)nc4)cnc(N)c23)ccc1NS(=O)(=O)C(F)F)c1ccc(F)cc1 [Compound 110, (S)-N-(4-(4-amino-1-methyl-7-(2-morpholinopyrimidin-5-yl)-1H-pyrazolo[4,3-c]pyridin-3-yl)-2-(1-(4-fluorophenyl)ethoxy)phenyl)-1,1-difluoromethanesulfonamide]
[1]
  pKd: > 9.00
[2]
  pKd: < 5.00
[3]
  pKd: < 5.00

## Cn1nc(-c2ccc(NS(=O)(=O)C(F)F)c(OCc3ncco3)c2)c2c(N)ncc(-c3cnn(C4CCOCC4)c3)c21 [Compound 151, N-(4-(4-amino-1-methyl-7-(1-(tetrahydro-2H-pyran-4-yl)-1H-pyrazol-4-yl)-1H-pyrazolo[4,3-c]pyridin-3-yl)-2-(oxazol-2-yl-methoxy)phenyl)-1,1-difluoromethane-sulfonamide]
[1]
  pKd: > 9.00
[2]
  pKd: < 5.00
[3]
  pKd: < 5.00
